Test results reported in patent publication US20230398130A1, “METHODS AND COMPOSITIONS FOR DIFFERENTIATING STEM CELLS” (Massachusetts Institute of Technology, priority 2020, published 2023).

Experiments:
ISC-enriched organoids [1] = experiment: Primary screen, 384-well 2.5-D organoid differentiation (ENR+CD, 6 days, Target Selective Inhibitor Library, vs whole-plate median): ATP (CellTiter-Glo 3D, CTG); details: for Dose.FC.CTG: FC vs plate median; for Dose.FC.CTG (log 2 fold change): vs plate median
ISC-enriched organoids [2] = experiment: Primary screen, 384-well 2.5-D organoid differentiation (ENR+CD, 6 days): carbachol-induced lysozyme secretion (LYZ.S); format: cell-based, murine; details: for Dose.FC.LYZ.S / Dose.FC.LYZ.S (log 2 fold change): primary screen; for Dose.FC.LYZ.S: FC vs plate median; for Dose.FC.LYZ.S (log 2 fold change): vs plate median
Description: (§1) High-throughput screening.

ISC-enriched organoids [3] = experiment: Primary screen, 384-well 2.5-D organoid differentiation (ENR+CD, 6 days): basal lysozyme secretion (LYZ.NS); format: cell-based, murine; details: for Dose.FC.LYZ.NS: FC vs plate median; for Dose.FC.LYZ.NS (log 2 fold change): vs plate median
Description: as §1

[4] = dose 0.08 uM (1st of 4 lines per treatment; dose not printed in this part)
[5] = dose 0.40 uM (2nd of 4 lines per treatment; dose not printed in this part)
[6] = dose 2.00 uM (3rd of 4 lines per treatment; dose not printed in this part)
[7] = dose 10.00 uM (4th of 4 lines per treatment; dose not printed in this part)
[8] = primary screen, dose 0.08 uM, ENR+CD 6 days
[9] = primary screen, dose 0.08 uM, standard z score of FC
[10] = primary screen, dose 0.40 uM, ENR+CD 6 days
[11] = primary screen, dose 0.40 uM, standard z score of FC
[12] = primary screen, dose 2.00 uM, ENR+CD 6 days
[13] = primary screen, dose 2.00 uM, standard z score of FC
[14] = primary screen, dose 10.00 uM, ENR+CD 6 days
[15] = primary screen, dose 10.00 uM, standard z score of FC
[16] = Dose 0.08 uM, primary screen, standard z score
[17] = Dose 0.40 uM, primary screen, standard z score
[18] = Dose 2.00 uM, primary screen, standard z score
[19] = Dose 10.00 uM, primary screen, standard z score
[20] = Dose 0.08 uM, standard z score of FC

CN1CCc2cc3c(cc2[C@H]1[C@@H]1OC(=O)c2c1ccc1c2OCO1)OCO3 [(+)-Bicuculline] was tested, and the “SSMD.CTG_Rep (strictly standardized mean difference)” value (ISC-enriched organoids [1]; [4]) was 0.472, the “SSMD.CTG_Rep (strictly standardized mean difference)” value (ISC-enriched organoids [1]; [5]) was −0.078 and the “SSMD.CTG_Rep (strictly standardized mean difference)” value (ISC-enriched organoids [1]; [6]) was −0.237. The “SSMD.CTG_Rep (strictly standardized mean difference)” value (ISC-enriched organoids [1]; [7]) was −0.405, the Dose.FC.CTG (ISC-enriched organoids [1]; [8]) was 0.318 log 2 fold change and the Z.CTG (ISC-enriched organoids [1]; [9]) was 0.760. It also gave a Dose.FC.CTG (ISC-enriched organoids [1]; [10]) of −0.029 log 2 fold change, a Z.CTG (ISC-enriched organoids [1]; [11]) of −0.069 and a Dose.FC.CTG (ISC-enriched organoids [1]; [12]) of −0.166 log 2 fold change. For the same molecule, the Z.CTG (ISC-enriched organoids [1]; [13]) was −0.396, the Dose.FC.CTG (ISC-enriched organoids [1]; [14]) was −0.132 log 2 fold change and the Z.CTG (ISC-enriched organoids [1]; [15]) was −0.315. For the same molecule, the “SSMD.LYZ.S_Rep (strictly standardized mean difference)” value (ISC-enriched organoids [2]; [4]) was 0.545, the “Z.LYZ.S (standard z score)” value (ISC-enriched organoids [2]; [4]) was 1.005 and the “SSMD.LYZ.S_Rep (strictly standardized mean difference)” value (ISC-enriched organoids [2]; [5]) was 0.216. The “Z.LYZ.S (standard z score)” value (ISC-enriched organoids [2]; [5]) was 0.221, the “SSMD.LYZ.S_Rep (strictly standardized mean difference)” value (ISC-enriched organoids [2]; [6]) was −0.164 and the “Z.LYZ.S (standard z score)” value (ISC-enriched organoids [2]; [6]) was −0.169. The “SSMD.LYZ.S_Rep (strictly standardized mean difference)” value (ISC-enriched organoids [2]; [7]) was 0.264, the “Z.LYZ.S (standard z score)” value (ISC-enriched organoids [2]; [7]) was 0.465 and the Dose.FC.LYZ.S (ISC-enriched organoids [2]; dose 0.08 uM, ENR+CD 6 days) was 0.155 log 2 fold change. For the same molecule, the Dose.FC.LYZ.S (ISC-enriched organoids [2]; dose 0.40 uM, ENR+CD 6 days) was 0.034 log 2 fold change, the Dose.FC.LYZ.S (ISC-enriched organoids [2]; dose 2.00 uM, ENR+CD 6 days) was −0.026 log 2 fold change and the Dose.FC.LYZ.S (ISC-enriched organoids [2]; dose 10.00 uM, ENR+CD 6 days) was 0.072 log 2 fold change. The “SSMD.LYZ.NS_Rep (strictly standardized mean difference)” value (ISC-enriched organoids [3]; [4]) was 0.481, the “SSMD.LYZ.NS_Rep (strictly standardized mean difference)” value (ISC-enriched organoids [3]; [5]) was 0.106 and the “SSMD.LYZ.NS_Rep (strictly standardized mean difference)” value (ISC-enriched organoids [3]; [6]) was 0.276. For the same molecule, the “SSMD.LYZ.NS_Rep (strictly standardized mean difference)” value (ISC-enriched organoids [3]; [7]) was 0.175, the Dose.FC.LYZ.NS (ISC-enriched organoids [3]; [8]) was 0.092 log 2 fold change and the Z.LYZ.NS (ISC-enriched organoids [3]; [9]) was 0.805. The Dose.FC.LYZ.NS (ISC-enriched organoids [3]; [10]) was 0.013 log 2 fold change, the Z.LYZ.NS (ISC-enriched organoids [3]; [11]) was 0.116 and the Dose.FC.LYZ.NS (ISC-enriched organoids [3]; [12]) was 0.031 log 2 fold change. It also gave a Z.LYZ.NS (ISC-enriched organoids [3]; [13]) of 0.270, a Dose.FC.LYZ.NS (ISC-enriched organoids [3]; [14]) of 0.020 log 2 fold change and a Z.LYZ.NS (ISC-enriched organoids [3]; [15]) of 0.176.

Work on CCn1c(-c2nonc2N)nc2c(C#CC(C)(C)O)ncc(OC[C@H]3CCCNC3)c21 [GSK690693] yielded a Dose.FC.CTG (ISC-enriched organoids [1]; Dose 0.08 uM, primary screen) of 0.129 log 2 fold change, a Z.CTG (ISC-enriched organoids [1]; [16]) of 0.308 and a Dose.FC.CTG (ISC-enriched organoids [1]; Dose 0.40 uM, primary screen) of 0.197 log 2 fold change. It also gave a Z.CTG (ISC-enriched organoids [1]; [17]) of 0.470, a Dose.FC.CTG (ISC-enriched organoids [1]; Dose 2.00 uM, primary screen) of −0.027 log 2 fold change and a Z.CTG (ISC-enriched organoids [1]; [18]) of −0.064. It also gave a Dose.FC.CTG (ISC-enriched organoids [1]; Dose 10.00 uM, primary screen) of −0.182 log 2 fold change, a Z.CTG (ISC-enriched organoids [1]; [19]) of −0.434 and a Dose.FC.LYZ.S (ISC-enriched organoids [2]; Dose 0.08 uM) of 0.019 log 2 fold change. It also gave a Dose.FC.LYZ.S (ISC-enriched organoids [2]; Dose 0.40 uM) of 0.155 log 2 fold change, a Dose.FC.LYZ.S (ISC-enriched organoids [2]; Dose 2.00 uM) of 0.124 log 2 fold change and a Dose.FC.LYZ.S (ISC-enriched organoids [2]; Dose 10.00 uM) of −0.153 log 2 fold change. For the same molecule, the Dose.FC.LYZ.NS (ISC-enriched organoids [3]; Dose 0.08 uM, primary screen) was 0.045 log 2 fold change, the Z.LYZ.NS (ISC-enriched organoids [3]; [16]) was 0.388 and the Dose.FC.LYZ.NS (ISC-enriched organoids [3]; Dose 0.40 uM, primary screen) was 0.047 log 2 fold change. For the same molecule, the Z.LYZ.NS (ISC-enriched organoids [3]; [17]) was 0.409, the Dose.FC.LYZ.NS (ISC-enriched organoids [3]; Dose 2.00 uM, primary screen) was 0.122 log 2 fold change and the Z.LYZ.NS (ISC-enriched organoids [3]; [18]) was 1.060. It also gave a Dose.FC.LYZ.NS (ISC-enriched organoids [3]; Dose 10.00 uM, primary screen) of −0.080 log 2 fold change and a Z.LYZ.NS (ISC-enriched organoids [3]; [19]) of −0.698.

With N#CSc1cc(SC#N)c(N)nc1N [PR-619] the Dose.FC.CTG (ISC-enriched organoids [1]; Dose 0.08 uM, primary screen) was 0.054 log 2 fold change, the Z.CTG (ISC-enriched organoids [1]; [20]) was 0.130 and the “Z.CTG (standard z score)” value (ISC-enriched organoids [1]; Dose 0.40 uM, primary screen) was 0.266. For the same molecule, the “Dose.FC.CTG (log 2 fold change)” value (ISC-enriched organoids [1]; Dose 0.40 uM, primary screen) was 0.111, the “Z.CTG (standard z score)” value (ISC-enriched organoids [1]; Dose 2.00 uM, primary screen) was 0.053 and the “Dose.FC.CTG (log 2 fold change)” value (ISC-enriched organoids [1]; Dose 2.00 uM, primary screen) was 0.022. The “Z.CTG (standard z score)” value (ISC-enriched organoids [1]; Dose 10.00 uM, primary screen) was −0.764, the “Dose.FC.CTG (log 2 fold change)” value (ISC-enriched organoids [1]; Dose 10.00 uM, primary screen) was −0.320 and the Dose.FC.LYZ.S (ISC-enriched organoids [2]; Dose 0.08 uM) was 0.122 log 2 fold change. The “Dose.FC.LYZ.S (log 2 fold change)” value (ISC-enriched organoids [2]; Dose 0.40 uM) was 0.047, the “Dose.FC.LYZ.S (log 2 fold change)” value (ISC-enriched organoids [2]; Dose 2.00 uM) was 0.081 and the “Dose.FC.LYZ.S (log 2 fold change)” value (ISC-enriched organoids [2]; Dose 10.00 uM) was −0.193. For the same molecule, the Dose.FC.LYZ.NS (ISC-enriched organoids [3]; Dose 0.08 uM, primary screen) was 0.100 log 2 fold change, the Z.LYZ.NS (ISC-enriched organoids [3]; [20]) was 0.872 and the “Z.LYZ.NS (standard z score)” value (ISC-enriched organoids [3]; Dose 0.40 uM, primary screen) was 0.448. The “Dose.FC.LYZ.NS (log 2 fold change)” value (ISC-enriched organoids [3]; Dose 0.40 uM, primary screen) was 0.051, the “Z.LYZ.NS (standard z score)” value (ISC-enriched organoids [3]; Dose 2.00 uM, primary screen) was 0.495 and the “Dose.FC.LYZ.NS (log 2 fold change)” value (ISC-enriched organoids [3]; Dose 2.00 uM, primary screen) was 0.057. For the same molecule, the “Z.LYZ.NS (standard z score)” value (ISC-enriched organoids [3]; Dose 10.00 uM, primary screen) was −1.687 and the “Dose.FC.LYZ.NS (log 2 fold change)” value (ISC-enriched organoids [3]; Dose 10.00 uM, primary screen) was −0.194.
